Assays:
Assay type in all cases: cell-based, murine
iNOS mRNA = iNOS mRNA Northern blot, IFN-γ-stimulated N9 microglia; conditions: N9 cells, IFN-γ 200 u ml, 24 h, tranilast 300 μM
Description: (§1) Tranilast was a generous gift of Kissei Pharmaceuticals (Nagano, Japan). Murine recombinant IFN-γ was purchased from Boehringer (Mannheim, Germany). Dexamethasone (DEX) was obtained from Sigma (Deisenhofen, Germany). N9 murine microglial cells were a kind gift from P. Ricciardi-Castagnoli (Milano, Italy) (Righi, M., Mori, L., De Libero, G., Sironi, M., Biondi, A., Mantovani, A., Donini, S. D. and Ricciardi-Castagnoli, P. Eur J Immunol 19(8):1443-1448, 1989). The cells were cultured in Dulbecco's modified Eagle's medium (DMEM) supplemented with 10% foetal calf serum (FCS), 2 mM glutamine and penicillin ([…])/streptomycin (100 μg ml), and maintained at 37° C. in an atmosphere of 5% CO2. Viability was assessed by crystal violet staining.
Total RNA was isolated using the RNeasy kit (Qiagen, Hilden, Germany). Total RNA ([…]) was separated on 1.2% agarose gels and blotted onto nylon membranes (Amersham). The filters were hybridized according to standard procedures (Platten, M., Wild-Bode, C., Wick, W., Leitlein, J., Dichgans, J., and Weller, M., Int. J. Cancer, 93:53-61, 2001) with a ^32P-labelled murine cDNA probe for iNOS. For the generation of the iNOS probe, N9 cells were stimulated with IFN-γ ([…]) for 24 h. […]

PKCδ = PKCδ translocation by immunocytochemistry in N9 microglia; conditions: N9 cells, PMA 100 nM, TNL 300 μM
Description: Cells grown on glass coverslips were serum-starved for 16 hr, kept in Krebs Ringer HEPES buffer (125 mM NaCl, 5 mM KCl, 1.2 mM MgSO4, 2 mM CaCl2, 1.2 mM KH2PO4, 6 mM glucose, 25 mM HEPES, pH 7.4) for 1 hr and left untreated or treated with PMA (100 nM) without or with pre-incubation (1 hr) with TNL (300 μM). After fixation in ice-cold (−20′) methanol for 20 min, the cells were washed with PBS and incubated for 15 min with 0.1% NaBH4 and 0.1 M glycine in PBS to block autofluorescence. Nonspecific antibody binding was blocked for 45 min with PBG (PBS with 0.045% fish gelatin) containing 5% normal goat serum and 1% bovine serum albumin. Incubation with anti-PKCδ antibody was carried out for 24 hr at 4° after dilution in PBG containing 5% normal goat serum. After four washes with PBG, primary antibody binding was detected with an isotype-specific secondary antibody conjugated with Alexa™546 fluorescent dye. The coverslips were mounted in PermaFluor (Immunotech). Localization of the proteins was examined using confocal laser microscopy (Leica).

iNOS [1] = experiment: iNOS protein immunoblot, LPS-stimulated N9 microglia; conditions: TNL 300 μM
Description: (§2) TNL was a generous gift of Kissei Pharmaceuticals, LPC (Escherichia coli, 0127:BS), phorbol 12-myristate 13-acetate (PMA) and dexamethasone (DEX) were obtained from Sigma, BAY 11-7082 (BAY), NF-κB SN50 inhibitory peptide (SN50), GF 109203X (GFX) and rottlerin (ROT) were purchased from Biomol. PD098059 (PD) was obtained from Calbiochem. Purified murine interferon-γ (IFN-γ) was purchased from Roche Diagnostics. N9 murine microglial cells were a kind gift from P. Ricciardi-Castagnoli (Righi, M. et al. 1989 supra). Cells were cultured in Dulbecco's modified Eagle's medium (DMEM) supplemented with 10% fetal calf serum (FCS), 2 mM glutamine, penicillin (100 unit/mL) and streptomycin (100 μg/mL) and maintained at 37° in an atmosphere of 5% CO2. Viability was assessed by crystal violet staining.
For the preparation of whole cell lysates, the cells were lysed in 0.1 M Tris-HCl (pH 7.2) containing 0.1% NP40, 0.1 mM EDTA and 5 μg/mL phenylmethylsulphonyl fluoride. Twenty micrograms protein was separated by 10-12% SDS-PAGE and electroblotted on nitrocellulose membrane. Equal loading was controlled by Ponceau S staining. Immunodetection was performed using the following antibodies: anti-iNOS rabbit polyclonal antibody (1:1000, Cayman), antiphospho-IκBα mouse monoclonal antibody (1:1000), anti-PKCδ mouse monoclonal antibody (1:2000), antiphospho-MARCKS rabbit polyclonal antibody (1:1000), antiphospho-ERK-1/2, antiphospho-AKT, antiphospho-p38 mouse monoclonal antibodies (1:2000), anti-ERK-1/2, anti-AKT mouse monoclonal antibodies (1:500, all from Signal Transduction Laboratories). Bands were visualized using horseradish peroxidase-conjugated anti-rabbit IgG (1:4000 SantaCruz) or anti-mouse IgG (1:4000, Amersham).

iNOS [2] = experiment: iNOS activity by Griess assay (NO2 release), IFN-γ-stimulated N9 microglia; conditions: N9 cells, IFN-γ 200 u ml, 48 h
Description: as §1
iNOS activity was assessed by the Griess assay as described elsewhere (Rieger, J., Stander, M., Loschmann, P. A., Heneka, M., Dichgans, J., Klockgether, T. and Weller, M., Oncogene, 17:2323-2332, 1998). Briefly, conditioned supernatant (100 μl) was incubated with an equal volume of 1% sulphanilamide/0.1% naphthyl ethylene diamine dihydrochloride/2.5% H3PO4 (Griess reagent) (Green, L. C., Wagner, D. A., Glogowski, J., Skipper, P. I., Wishnok, J. S, and Tannenbaum, S. R., Anal. Biochem., 126:131-138, 1982), incubated for 5 min at room temperature, and the absorbance at […] determined. Solutions of NaNO2 diluted in DMEM served as standards. The absorbance readings resulting from DMEM alone were subtracted from the sample values. Cell density was assessed using crystal violet staining to control for differences in cell proliferation. iNOS activity is thus expressed here as NO2 accumulated per 48 h per 10^5 cells.

p38 MAPK = experiment: phospho-p38 immunoblot, LPS-stimulated N9 microglia; conditions: N9 cells, LPS 10 μg/mL 10 min, TNL pre-incubation 1 hr
Description: as §2
For the preparation of whole cell lysates, the cells were lysed in 0.1 M Tris-HCl (pH 7.2) containing 0.1% NP40, 0.1 mM EDTA and 5 μg/mL phenylmethylsulphonyl fluoride. Twenty micrograms protein was separated by 10-12% SDS-PAGE and electroblotted on nitrocellulose membrane. Equal loading was controlled by Ponceau S staining. […]

COc1ccc(/C=C/C(=O)Nc2ccccc2C(=O)O)cc1OC [tranilast, 2-[[3-(3,4-dimethoxyphenyl)-1-oxo-2-propenyl]amino]benzoic acid]
IFN-γ-induced iNOS mRNA expression (iNOS mRNA): greatly suppressed | PMA-induced translocation of PKCδ from cytosol to nucleus (PKCδ): abolished | accumulation of iNOS protein after LPS (iNOS [1]; N9 cells, LPS 10 μg/mL): suppressed | PMA superinduction of iNOS protein in LPS-stimulated cells (iNOS [1]; PMA 100 nM 15 min, LPS 10 μg/mL 24 hr): abolished | inhibition of NO release (iNOS [2]; concentration series): concentration-dependent inhibition | reduction of NO release (NO2, Griess assay) (iNOS [2]; tranilast 300 μM): 65% | cellular phospho-p38 levels after LPS (p38 MAPK): did not alter

Source: patent US7531575B2, “Method of modulating cellular activity and agents useful for same” (Eberhard-Karls-Universität Tübingin, priority 2002, dated 2009)
